Experimental data as given in the supplement of paper PMC10307832.

Key:
Experiment in all cases: relative viability (nuclei count vs DMSO), 5 days (fraction); higher = more cells survive
BGJ398 + Olaparib = compound: CCN1CCN(c2ccc(Nc3cc(N(C)C(=O)Nc4c(Cl)c(OC)cc(OC)c4Cl)ncn3)cc2)CC1 [BGJ398] + O=C(c1cc(Cc2n[nH]c(=O)c3ccccc23)ccc1F)N1CCN(C(=O)C2CC2)CC1 [Olaparib] (partner 8 µM)
Summary of the method: (§1)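 Relative viability equals treated-well nuclei counts divided by vehicle-well nuclei counts. Counts came from 4× images of lung cancer cell lines grown in 1536-well plates for 5 days after pin-tool dosing on the day after seeding. Dosing used one drug alone or a fixed anchor-drug dose plus five library-drug doses (not always all listed) in √10 steps, and values are medians of duplicate plates.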

BGJ398 + Tozasertib = compound: CCN1CCN(c2ccc(Nc3cc(N(C)C(=O)Nc4c(Cl)c(OC)cc(OC)c4Cl)ncn3)cc2)CC1 [BGJ398] + Cc1cc(Nc2cc(N3CCN(C)CC3)nc(Sc3ccc(NC(=O)C4CC4)cc3)n2)n[nH]1 [Tozasertib] (partner 0.1 µM)
Summary of the method: as §1

[1] = compound: C1=CC2=NC=CN=C2C=C1/C=C/3\C(=O)NC(=O)S3 + COc1cc2c(Oc3ccc(NC(=O)C4(C(=O)Nc5ccc(F)cc5)CC4)cc3F)ccnc2cc1OCCCN1CCOCC1 [Foretinib] (partner 0.25 µM)
Summary of the method: as §1

[2] = compound: C1=CC2=NC=CN=C2C=C1/C=C/3\C(=O)NC(=O)S3 + CS(=O)(=O)N1CCN(Cc2cc3nc(-c4cccc5[nH]ncc45)nc(N4CCOCC4)c3s2)CC1 [Pictilisib] (partner 1 µM)
Summary of the method: as §1

Row | Cell Line | relative viability (BGJ398 + Olaparib; first compound 0.01 µM) | relative viability (BGJ398 + Olaparib; first compound 0.03162 µM) | relative viability (BGJ398 + Olaparib; first compound 0.1 µM) | relative viability (BGJ398 + Olaparib; first compound 0.3162 µM) | relative viability (BGJ398 + Olaparib; first compound 1 µM) | relative viability (BGJ398 + Tozasertib; first compound 0.01 µM) | relative viability (BGJ398 + Tozasertib; first compound 0.03162 µM) | relative viability (BGJ398 + Tozasertib; first compound 0.1 µM) | relative viability (BGJ398 + Tozasertib; first compound 0.3162 µM) | relative viability (BGJ398 + Tozasertib; first compound 1 µM) | relative viability ([1]; first compound 0.02 µM) | relative viability ([1]; first compound 0.06325 µM) | relative viability ([1]; first compound 0.2 µM) | relative viability ([1]; first compound 0.6325 µM) | relative viability ([1]; first compound 2 µM) | relative viability ([2]; first compound 0.02 µM) | relative viability ([2]; first compound 0.06325 µM) | relative viability ([2]; first compound 0.2 µM) | relative viability ([2]; first compound 0.6325 µM) | relative viability ([2]; first compound 2 µM)
1 | NCI-H1437 | 0.687 | 0.629 | 0.587 | 0.607 | 0.666 | 0.414 | 0.418 | 0.418 | 0.4 | 0.427 | 1.19 | 1.24 | 1.16 | 1.25 | 1.15 | 0.441 | 0.482 | 0.434 | 0.347 | 0.317
2 | NCI-H460 | 0.39 | 0.42 | 0.428 | 0.414 | 0.381 | 0.446 | 0.558 | 0.437 | 0.372 | 0.456 | 0.936 | 0.833 | 1.03 | 0.953 | 1 | 0.376 | 0.281 | 0.338 | 0.324 | 0.199
3 | NCI-H1666 | 0.759 | 0.77 | 0.81 | 0.725 | 0.679 | 0.702 | 0.619 | 0.606 | 0.587 | 0.558 | 1.03 | 0.879 | 0.986 | 0.909 | 0.932 | 0.286 | 0.39 | 0.403 | 0.534 | 0.327
4 | NCI-H1651 | 0.183 | 0.169 | 0.188 | 0.165 | 0.162 | 0.732 | 0.629 | 0.633 | 0.575 | 0.581 | 0.774 | 0.734 | 0.911 | 0.796 | 0.75 | 0.547 | 0.574 | 0.598 | 0.462 | 0.472
5 | NCI-H1755 | 0.813 | 0.906 | 0.904 | 0.855 | 0.912 | 0.563 | 0.646 | 0.552 | 0.623 | 0.546 | 0.807 | 0.942 | 0.923 | 0.897 | 0.864 | 0.423 | 0.403 | 0.515 | 0.449 | 0.426
6 | NCI-H661 | 0.7 | 0.737 | 0.822 | 0.736 | 0.727 | 0.325 | 0.369 | 0.365 | 0.354 | 0.362 | 1 | 1.05 | 1.07 | 0.957 | 1.08 | 0.392 | 0.436 | 0.513 | 0.378 | 0.329
7 | HARA | 0.983 | 0.651 | 0.875 | 0.902 | 0.722 | 0.0926 | 0.116 | 0.0915 | 0.0847 | 0.0857 | 0.857 | 0.83 | 0.888 | 0.841 | 1.02 | 0.44 | 0.485 | 0.365 | 0.348 | 0.31
8 | NCI-H596 | 0.674 | 0.648 | 0.645 | 0.626 | 0.667 | 0.777 | 0.856 | 0.775 | 0.744 | 0.731 | 0.856 | 0.863 | 1.05 | 0.742 | 0.899 | 0.465 | 0.384 | 0.394 | 0.419 | 0.377
